Measurements taken from patent publication US8497278B2, “Imidazo[1,2-a]pyridine compounds” (priority 2008, dated 2013).

Key:
[1] = target: T1, α1 subtype containing GABA-A receptors (Homo sapiens, UniProt P14867+P18507); experiment: Two-electrode voltage clamp electrophysiology in Xenopus oocytes, potentiation of GABA EC20 response, α1; format: cell-based; settings: 100 nM compound; for activation at 0.1 µM: read-out: Percentage of potentiation alpha1
T1 construct: expressed in transfected cells; host or cells: Xenopus laevis oocytes, cRNA injected
Method in brief: (§1)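 Human α1/α2/α3/α5 with β3 and γ2L subunits expressed in Xenopus oocytes from injected cRNA, clamped at −80 mV in ND96 (pH 7.5). After baseline responses to GABA at EC20 (60 μM), 1 μM chlordiazepoxide served as potentiation standard, then test compound at 100 nM; one compound per oocyte.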

[2] = target: T2, α2 subtype containing GABA-A receptors (Homo sapiens, UniProt P18507+P47869); experiment: Two-electrode voltage clamp electrophysiology in Xenopus oocytes, potentiation of GABA EC20 response, α2; format: cell-based; settings: 100 nM compound; for activation at 0.1 µM: read-out: Percentage of potentiation alpha2
T2 construct: expressed in transfected cells; host or cells: Xenopus laevis oocytes, cRNA injected
Method in brief: as §1

[3] = test system: central benzodiazepine receptors; experiment: Central benzodiazepine receptor binding (test of Speth et al.); settings: 1000 nM of the compound
Method in brief: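 Radioligand binding by the Speth et al. method. Specific binding is total minus nonspecific binding, the latter measured with excess unlabelled ligand. Compounds screened at 1.0E-09, 1.0E-07 and 1.0E-05 M in single determination; values given as percent inhibition at 1000 nM compound.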

T2 sequence (P47869 29-451): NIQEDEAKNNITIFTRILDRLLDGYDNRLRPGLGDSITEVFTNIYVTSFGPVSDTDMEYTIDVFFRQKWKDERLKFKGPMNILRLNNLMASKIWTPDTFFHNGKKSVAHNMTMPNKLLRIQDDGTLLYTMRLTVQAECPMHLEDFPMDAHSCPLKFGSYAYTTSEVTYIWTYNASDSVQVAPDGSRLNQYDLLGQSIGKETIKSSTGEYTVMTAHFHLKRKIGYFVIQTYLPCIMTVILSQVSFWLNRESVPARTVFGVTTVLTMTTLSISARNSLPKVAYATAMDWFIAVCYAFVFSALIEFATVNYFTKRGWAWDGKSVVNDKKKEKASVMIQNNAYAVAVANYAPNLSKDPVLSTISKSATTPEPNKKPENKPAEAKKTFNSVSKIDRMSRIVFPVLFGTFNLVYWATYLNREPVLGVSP
T2 sequence (P28472 26-473 partner): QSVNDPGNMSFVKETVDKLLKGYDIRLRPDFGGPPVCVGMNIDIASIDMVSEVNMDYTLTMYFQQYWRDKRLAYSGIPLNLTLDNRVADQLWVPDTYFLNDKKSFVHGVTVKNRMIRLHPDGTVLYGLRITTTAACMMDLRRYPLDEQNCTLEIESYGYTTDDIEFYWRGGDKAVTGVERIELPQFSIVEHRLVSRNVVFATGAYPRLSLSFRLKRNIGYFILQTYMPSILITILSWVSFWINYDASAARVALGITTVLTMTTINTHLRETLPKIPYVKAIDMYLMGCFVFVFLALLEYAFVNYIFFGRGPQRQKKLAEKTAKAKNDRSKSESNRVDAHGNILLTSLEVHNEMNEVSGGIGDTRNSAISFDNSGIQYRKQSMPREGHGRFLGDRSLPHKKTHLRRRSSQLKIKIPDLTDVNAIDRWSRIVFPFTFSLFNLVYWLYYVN
T2 sequence (P18507 40-475): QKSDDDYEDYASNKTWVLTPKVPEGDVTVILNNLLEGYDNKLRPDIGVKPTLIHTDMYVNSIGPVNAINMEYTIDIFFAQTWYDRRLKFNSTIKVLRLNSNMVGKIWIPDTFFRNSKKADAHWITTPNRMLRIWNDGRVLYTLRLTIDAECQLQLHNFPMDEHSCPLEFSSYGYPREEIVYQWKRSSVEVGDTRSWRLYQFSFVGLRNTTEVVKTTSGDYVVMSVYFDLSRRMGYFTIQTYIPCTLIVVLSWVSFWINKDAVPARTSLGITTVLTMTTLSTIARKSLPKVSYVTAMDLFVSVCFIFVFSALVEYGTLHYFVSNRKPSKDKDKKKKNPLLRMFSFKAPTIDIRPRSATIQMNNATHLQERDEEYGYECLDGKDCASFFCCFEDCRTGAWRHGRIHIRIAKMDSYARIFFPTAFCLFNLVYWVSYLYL
T1 sequence (P14867 28-456): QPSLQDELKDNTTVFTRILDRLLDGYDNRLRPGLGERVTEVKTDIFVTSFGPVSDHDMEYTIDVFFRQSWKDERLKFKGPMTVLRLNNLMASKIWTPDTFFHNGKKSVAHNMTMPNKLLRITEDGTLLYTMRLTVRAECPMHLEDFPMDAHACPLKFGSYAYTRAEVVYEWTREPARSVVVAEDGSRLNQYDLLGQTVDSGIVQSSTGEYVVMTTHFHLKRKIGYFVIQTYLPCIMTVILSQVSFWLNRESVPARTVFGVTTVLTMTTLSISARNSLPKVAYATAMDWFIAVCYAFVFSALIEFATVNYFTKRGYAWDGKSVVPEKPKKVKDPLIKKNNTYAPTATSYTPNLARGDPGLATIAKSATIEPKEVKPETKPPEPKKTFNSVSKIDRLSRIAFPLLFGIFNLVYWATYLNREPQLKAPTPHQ
T1 sequence (P28472 26-473 partner): as the sequence (P28472 26-473 partner) above
T1 sequence (P18507 40-475): as the sequence (P18507 40-475) above

`Cc1ccc2nc(-c3ccc(F)cc3)c(CNc3nc(C)cc(Cl)n3)n2c1` [Compound 160, 4-chloro-N-((2-(4-fluorophenyl)-6-methylimidazo[1,2-a]pyridin-3-yl)methyl)-6-methylpyrimidin-2-amine] was tested, and the activation at 0.1 µM [1] was 10 to 50%, the activation at 0.1 µM [2] was 10 to 50% and the “% Inhibition at 1000 nM for CBZD” value [3] was “++ (percentage of inhibition of central BZD site binding is greater than 80% in the presence of 1000 nM of the compound)”.
For `Cn1c(=O)ccn(Cc2c(-c3ccc(Cl)cc3)nc3ccccn23)c1=O` [Compound 125, 1-((2-(4-chlorophenyl)imidazo[1,2-a]pyridin-3-yl)methyl)-3-methylpyrimidine-2,4(1H,3H)-dione], the activation at 0.1 µM [1] was -10 to 10%, the activation at 0.1 µM [2] was 10 to 50% and the “% Inhibition at 1000 nM for CBZD” value [3] was “++ (percentage of inhibition of central BZD site binding is greater than 80% in the presence of 1000 nM of the compound)”.
In the case of `Cc1noc(-c2nccn2Cc2c(-c3ccc(Cl)cc3)nc3ccccn23)n1` [Compound 27, 2-(4-chlorophenyl)-3-((2-(3-methyl-1,2,4-oxadiazol-5-yl)-1H-imidazol-1-yl)methyl)H-imidazo[1,2-a]pyridine], the “Percentage of potentiation alpha1” value [1] is reported as “+ (percentage of potentiation is greater than or equal to 10% but less than 50% in the presence of 100 nM of the compound)”, the “Percentage of potentiation alpha2” value [2] is reported as “+ (percentage of potentiation is greater than or equal to 10% but less than 50% in the presence of 100 nM of the compound)” and the “% Inhibition at 1000 nM for CBZD” value [3] is reported as “++ (percentage of inhibition of central BZD site binding is greater than 80% in the presence of 1000 nM of the compound)”.
In the case of `O=c1[nH]c(=O)n(Cc2c(-c3ccc(Cl)cc3)nc3ccccn23)cc1F` [Compound 127, 1-((2-(4-chlorophenyl)imidazo[1,2-a]pyridin-3-yl)methyl)-5-fluoropyrimidine-2,4(1H,3H)-dione], the activation at 0.1 µM [1] is reported as -10 to 10%, the activation at 0.1 µM [2] is reported as 10 to 50% and the “% Inhibition at 1000 nM for CBZD” value [3] is reported as “+ (percentage of inhibition of central BZD site binding is greater than 50% but less than 80% in the presence of 1000 nM of the compound)”.
With `Cc1ccc(-c2nc3ccc(C)cn3c2Cn2nc(C)cc2C)cc1` [Compound 9, 6-Methyl-3-((3,5-dimethyl-1H-pyrazol-1-yl)methyl)-2-p-tolylH-imidazo[1,2-a]pyridine] the “Percentage of potentiation alpha1” value [1] was “+ (percentage of potentiation is greater than or equal to 10% but less than 50% in the presence of 100 nM of the compound)”, the “Percentage of potentiation alpha2” value [2] was “+ (percentage of potentiation is greater than or equal to 10% but less than 50% in the presence of 100 nM of the compound)” and the “% Inhibition at 1000 nM for CBZD” value [3] was “++ (percentage of inhibition of central BZD site binding is greater than 80% in the presence of 1000 nM of the compound)”.
In the case of `O=c1nc(N2CCCC2)ccn1Cc1c(-c2ccc(Cl)cc2)nc2ccccn12` [Compound 136, 1-((2-(4-chlorophenyl)imidazo[1,2-a]pyridin-3-yl)methyl)-4-(pyrrolidin-1-yl)pyrimidin-2(1H)-one], the activation at 0.1 µM [1] is reported as 10 to 50%, the activation at 0.1 µM [2] is reported as no less than 50% and the “% Inhibition at 1000 nM for CBZD” value [3] is reported as “++ (percentage of inhibition of central BZD site binding is greater than 80% in the presence of 1000 nM of the compound)”.
For `Fc1ccc2nc(-c3ccc(Cl)cc3)c(Cn3nccn3)n2c1` [Compound 56, 3-((2H-1,2,3-triazol-2-yl)methyl)-2-(4-chlorophenyl)-6-fluoroH-imidazo[1,2-a]pyridine], the “Percentage of potentiation alpha1” value [1] was “+ (percentage of potentiation is greater than or equal to 10% but less than 50% in the presence of 100 nM of the compound)”, the “Percentage of potentiation alpha2” value [2] was “++ (percentage of potentiation is greater than or equal to 50% in the presence of 100 nM of the compound)” and the “% Inhibition at 1000 nM for CBZD” value [3] was “++ (percentage of inhibition of central BZD site binding is greater than 80% in the presence of 1000 nM of the compound)”.
With `CNNc1cncc(Cc2c(-c3ccc(Cl)cc3)nc3ccccn23)n1` [Compound 193, 2-(4-chlorophenyl)-3-((6-(2-methylhydrazinyl)pyrazin-2-yl)methyl)imidazo[1,2-a]pyridine] the activation at 0.1 µM [1] was 10 to 50%, the activation at 0.1 µM [2] was 10 to 50% and the “% Inhibition at 1000 nM for CBZD” value [3] was “++ (percentage of inhibition of central BZD site binding is greater than 80% in the presence of 1000 nM of the compound)”.
In the case of `Cc1cc(Cl)nc(NCc2c(-c3ccc(Cl)cc3)nc3ccccn23)n1` [Compound 159, 4-chloro-N-((2-(4-chlorophenyl)imidazo[1,2-a]pyridin-3-yl)methyl)-6-methylpyrimidin-2-amine], the activation at 0.1 µM [1] is reported as 10 to 50%, the activation at 0.1 µM [2] is reported as 10 to 50% and the “% Inhibition at 1000 nM for CBZD” value [3] is reported as “++ (percentage of inhibition of central BZD site binding is greater than 80% in the presence of 1000 nM of the compound)”.
`Cc1ccc(-c2nc3ccc(C)cn3c2Cn2ccnc2C)cc1` [Compound 2, 6-Methyl-3-((2-methyl-1H-imidazol-1-yl)methyl)-2-p-tolylH-imidazo[1,2-a]pyridine] was tested, and the “Percentage of potentiation alpha1” value [1] was “+ (percentage of potentiation is greater than or equal to 10% but less than 50% in the presence of 100 nM of the compound)”, the “Percentage of potentiation alpha2” value [2] was “+ (percentage of potentiation is greater than or equal to 10% but less than 50% in the presence of 100 nM of the compound)” and the “% Inhibition at 1000 nM for CBZD” value [3] was “++ (percentage of inhibition of central BZD site binding is greater than 80% in the presence of 1000 nM of the compound)”.
In the case of `Fc1ccc(-c2nc3ccccn3c2Cn2nccn2)cc1` [Compound 49, 3-((2H-1,2,3-triazol-2-yl)methyl)-2-(4-fluorophenyl)H-imidazo[1,2-a]pyridine], the “Percentage of potentiation alpha1” value [1] is reported as 0 (percentage of potentiation is between about 10% to about −10%), the “Percentage of potentiation alpha2” value [2] is reported as “+ (percentage of potentiation is greater than or equal to 10% but less than 50% in the presence of 100 nM of the compound)” and the “% Inhibition at 1000 nM for CBZD” value [3] is reported as “++ (percentage of inhibition of central BZD site binding is greater than 80% in the presence of 1000 nM of the compound)”.
For `Cc1nnc(Cc2c(-c3ccc(Cl)cc3)nc3ccccn23)[nH]1` [Compound 233, 2-(4-chlorophenyl)-3-((5-methyl-4H-1,2,4-triazol-3-yl)methyl)imidazo[1,2-a]pyridine], the activation at 0.1 µM [1] was 10 to 50%, the activation at 0.1 µM [2] was no less than 50% and the “% Inhibition at 1000 nM for CBZD” value [3] was “++ (percentage of inhibition of central BZD site binding is greater than 80% in the presence of 1000 nM of the compound)”.
For `CNC(=O)c1ncnn1Cc1c(-c2ccc(Cl)cc2)nc2ccc(Cl)cn12` [Compound 81, 2-[6-Chloro-2-(4-chloro-phenyl)-imidazo[1,2-a]pyridin-3-ylmethyl]-2H-[1,2,4]triazole-3-carboxylic acid methylamide], the activation at 0.1 µM [1] was 10 to 50%, the activation at 0.1 µM [2] was 10 to 50% and the “% Inhibition at 1000 nM for CBZD” value [3] was “++ (percentage of inhibition of central BZD site binding is greater than 80% in the presence of 1000 nM of the compound)”.
In the case of `Cc1nnc(Cc2c(-c3ccc(Cl)cc3)nc3ccccn23)o1` [Compound 204, 2-((2-(4-chlorophenyl)imidazo[1,2-a]pyridin-3-yl)methyl)-5-methyl-1,3,4-oxadiazole], the activation at 0.1 µM [1] is reported as -10 to 10%, the activation at 0.1 µM [2] is reported as 10 to 50% and the “% Inhibition at 1000 nM for CBZD” value [3] is reported as “++ (percentage of inhibition of central BZD site binding is greater than 80% in the presence of 1000 nM of the compound)”.
For `OC[C@H]1CCCN1c1ccnc(NCc2c(-c3ccccc3)nc3ccc(Cl)cn23)n1` [Compound 188, (R)-(1-(2-((6-chloro-2-phenylimidazo[1,2-a]pyridin-3-yl)methylamino)pyrimidin-4-yl)pyrrolidin-2-yl)methanol], the activation at 0.1 µM [1] was no less than 50%, the activation at 0.1 µM [2] was no less than 50% and the “% Inhibition at 1000 nM for CBZD” value [3] was “++ (percentage of inhibition of central BZD site binding is greater than 80% in the presence of 1000 nM of the compound)”.
For `Clc1ccc2nc(-c3ccccc3)c(Cn3nnc4ccccc43)n2c1` [Compound 46, 1-((6-chloro-2-phenylH-imidazo[1,2-a]pyridin-3-yl)methyl)-1H-benzo[d][1,2,3]triazole], the “Percentage of potentiation alpha1” value [1] was “+ (percentage of potentiation is greater than or equal to 10% but less than 50% in the presence of 100 nM of the compound)”, the “Percentage of potentiation alpha2” value [2] was 0 (percentage of potentiation is between about 10% to about −10%) and the “% Inhibition at 1000 nM for CBZD” value [3] was “++ (percentage of inhibition of central BZD site binding is greater than 80% in the presence of 1000 nM of the compound)”.
In the case of `Brc1ccc(-c2nc3ccccn3c2Cn2cncn2)cc1` [Compound 64, 3-((1H-1,2,4-triazol-1-yl)methyl)-2-(4-bromophenyl)H-imidazo[1,2-a]pyridine], the “Percentage of potentiation alpha1” value [1] is reported as “+ (percentage of potentiation is greater than or equal to 10% but less than 50% in the presence of 100 nM of the compound)”, the “Percentage of potentiation alpha2” value [2] is reported as “+ (percentage of potentiation is greater than or equal to 10% but less than 50% in the presence of 100 nM of the compound)” and the “% Inhibition at 1000 nM for CBZD” value [3] is reported as “++ (percentage of inhibition of central BZD site binding is greater than 80% in the presence of 1000 nM of the compound)”.
`CN(C)CCNC(=O)c1nccn1Cc1c(-c2ccc(Cl)cc2)nc2ccccn12` [Compound 78, 1-((2-(4-chlorophenyl)H-imidazo[1,2-a]pyridin-3-yl)methyl)-N-(2-(dimethylamino)ethyl)-1H-imidazole-2-carboxamide] was tested, and the “Percentage of potentiation alpha1” value [1] was “+ (percentage of potentiation is greater than or equal to 10% but less than 50% in the presence of 100 nM of the compound)”, the “Percentage of potentiation alpha2” value [2] was “+ (percentage of potentiation is greater than or equal to 10% but less than 50% in the presence of 100 nM of the compound)” and the “% Inhibition at 1000 nM for CBZD” value [3] was “++ (percentage of inhibition of central BZD site binding is greater than 80% in the presence of 1000 nM of the compound)”.
